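Following 48 hours of exposure in 96-well plates, responses at five concentrations were used to interpolate endpoints linearly. GI50 is the concentration that inhibits growth by half.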 Activity calls are given as the source filed them. Cut-off read from the data, not from the text of the source: active = GI50 up to about 1.1 µM and inactive = higher.

We go through ten compounds from ChEMBL document CHEMBL1201862, “PubChem BioAssay data set” (2004).

Test systems include MCF7; HCT-116; MOLT-4; T47D; DU-145; SW-620; BT-549; SK-OV-3; HOP-62; UACC-62; MDA-MB-435; OVCAR-3; MDA-N; LOX IMVI; M14; 786-0; NCI-H460; NCI-H522; SN12C; K562.
Holding throughout (test): inhibition of tumour cell growth, NCI panel, 48 h

On to `O=C1C=CC2(O[C@H](c3ccccc3)[C@@H](c3ccccc3)O2)[C@H](Sc2ccccc2O)C1`, for which the GI50 was 0.27 µM (active) with MCF7; 0.122 µM (active) in the assay on HCT-116; 0.0286 µM (active) in the assay with MOLT-4; 0.785 µM (active) in the assay with T47D; 1.22 µM (inactive) in the assay on DU-145; 0.0824 µM (active) in the assay with SW-620. For the same compound, the GI50 in the assay with BT-549 is 0.502 µM (active); in the assay with SK-OV-3, 3.27 µM (inactive); with HOP-62, 1.85 µM (inactive); in the assay on UACC-62, 0.841 µM (active); with MDA-MB-435, 0.309 µM (active); with OVCAR-3, 0.418 µM (active). Besides, the GI50 was 0.316 µM (active) in the assay on MDA-N; 0.163 µM (active) in the assay with LOX IMVI; 0.233 µM (active) with M14; 0.15 µM (active) in the assay on 786-0; 2.13 µM (inactive) in the assay on NCI-H460; 0.0532 µM (active) with NCI-H522. For the same compound, the results for the GI50 with SN12C and with K562 were 0.204 µM (active) and 0.405 µM (active), respectively.
For the compound `COC(=O)C(CCSC)NC(=O)Cc1ccc(C(=O)c2ccccc2)cc1` (stereo not given), the GI50 in the assay with MCF7 is 47.3 µM (inactive); with HCT-116 it was 39.7 µM (inactive); in the assay on MOLT-4, 55 µM (inactive); in the assay with T47D, 59.2 µM (inactive); in the assay on DU-145, 86.9 µM (inactive); in the assay on SW-620 it was 42.4 µM (inactive). For the same compound, the GI50 is 29 µM (inactive) in the assay with BT-549; 40.4 µM (inactive) in the assay on SK-OV-3; 88.1 µM (inactive) with HOP-62; 51.2 µM (inactive) in the assay with UACC-62; 29.1 µM (inactive) in the assay on MDA-MB-435; 67.6 µM (inactive) with OVCAR-3. Also, the GI50 in the assay with MDA-N is 14.9 µM (inactive); with LOX IMVI, 55.7 µM (inactive); in the assay with M14, 35.5 µM (inactive); in the assay with 786-0, > 100 µM (inactive); in the assay with NCI-H460, 34.7 µM (inactive); in the assay with NCI-H522 it was 57.8 µM (inactive). The GI50 in the assay with SN12C was 50.1 µM (inactive); in the assay with K562, 37.8 µM (inactive).
As to `CC[C@@]1(OC(=O)C(N)CCC(=O)O)C(=O)OCc2c1cc1n(c2=O)Cc2cc3ccccc3nc2-1` (stereo not given in full), the GI50 with MCF7 was < 0.01 µM (active); in the assay on HCT-116 it was 0.122 µM (active); with MOLT-4, 0.0106 µM (active); in the assay with T47D, 0.0267 µM (active); in the assay with DU-145 it was < 0.01 µM (active); in the assay with SW-620, 0.179 µM (active). The GI50 is 0.733 µM (active) in the assay with BT-549; 0.0553 µM (active) in the assay on SK-OV-3; < 0.0124 µM (active) in the assay with HOP-62; < 0.0152 µM (active) in the assay on UACC-62; 0.219 µM (active) in the assay on MDA-MB-435; 0.417 µM (active) in the assay on OVCAR-3. In addition, the GI50 in the assay with MDA-N is 0.314 µM (active); in the assay on LOX IMVI, 0.0196 µM (active); in the assay with M14, 0.0347 µM (active); in the assay with 786-0 it was 0.0206 µM (active); in the assay with NCI-H460, 0.0112 µM (active); in the assay with NCI-H522, 0.0536 µM (active). The figures for the GI50 in the assay on SN12C and in the assay on K562 were 0.0244 µM (active) and 0.314 µM (active), respectively.
As for `O=C(CC(=O)Nc1ccccc1)NNC(c1cc(/N=N/c2ccc(Br)cc2)ccc1O)P(O)O` (stereo not given), the GI50 in the assay on MCF7 is 1.03 µM (active); in the assay on HCT-116, 0.504 µM (active); in the assay on MOLT-4, 0.321 µM (active); in the assay on T47D, 3.31 µM (inactive); in the assay on DU-145, 3.48 µM (inactive); with SW-620, 1.55 µM (inactive). Also, the GI50 is 4 µM (inactive) with BT-549; 5.48 µM (inactive) in the assay on SK-OV-3; 6.79 µM (inactive) in the assay with HOP-62; 1.34 µM (inactive) with UACC-62; 1.77 µM (inactive) with MDA-MB-435; 0.333 µM (active) in the assay on OVCAR-3. In addition, the GI50 in the assay on MDA-N is 3.83 µM (inactive); with LOX IMVI it was 1.71 µM (inactive); in the assay with M14 it was 0.631 µM (active); in the assay on 786-0 it was 0.489 µM (active); in the assay on NCI-H460 it was 0.447 µM (active); in the assay with NCI-H522, 3.48 µM (inactive). Moreover, the GI50 is 4.04 µM (inactive) in the assay with SN12C and 2.06 µM (inactive) in the assay on K562.
In the case of `O=c1c(F)cn(Cc2c(Cl)cccc2Cl)c(=O)n1Cc1c(Cl)cccc1Cl`, the GI50 in the assay on MCF7 was 24.5 µM (inactive); in the assay with HCT-116, 23.8 µM (inactive); in the assay with MOLT-4, 25.6 µM (inactive); in the assay on T47D it was 20.7 µM (inactive); in the assay on DU-145, > 100 µM (inactive); with SW-620, > 31.6 µM (inactive). For the same compound, the GI50 in the assay on BT-549 is > 31.6 µM (inactive); in the assay with SK-OV-3, > 31.6 µM (inactive); in the assay on HOP-62, > 31.6 µM (inactive); with UACC-62 it was 26 µM (inactive); in the assay on MDA-MB-435, 29.6 µM (inactive); in the assay with OVCAR-3, > 31.6 µM (inactive). Moreover, the GI50 in the assay with MDA-N was > 31.6 µM (inactive); with LOX IMVI it was > 31.6 µM (inactive); in the assay with M14, > 31.6 µM (inactive); in the assay on 786-0, > 31.6 µM (inactive); in the assay with NCI-H460 it was > 31.6 µM (inactive); with NCI-H522, 16 µM (inactive). Further, the GI50 in the assay on SN12C was > 31.6 µM (inactive); in the assay with K562, 26.9 µM (inactive).
Regarding `C1CCN2CC3CCCN4CCCC(C2C1)C34` (stereo not given), the GI50 with MCF7, in the assay with HCT-116, with MOLT-4, with T47D, in the assay with DU-145 and with SW-620 was > 100 µM (inactive) throughout. Also, the GI50 with BT-549, with SK-OV-3, with HOP-62, in the assay on UACC-62, in the assay with MDA-MB-435 and in the assay with OVCAR-3 was > 100 µM (inactive) in each case. The GI50 in the assay on MDA-N, with LOX IMVI, in the assay with M14, with 786-0, in the assay on NCI-H460 and with NCI-H522 was > 100 µM (inactive) in each case. Moreover, the GI50 with SN12C and with K562 was > 100 µM (inactive) each time.
`O=C(Cc1ccc(Cl)c(Cl)c1)NCC1(N2CCCCC2)CCCCC1`: the GI50 is 43.6 µM (inactive) in the assay with MCF7; 40.6 µM (inactive) in the assay on HCT-116; 35.5 µM (inactive) in the assay with MOLT-4; 21.1 µM (inactive) with T47D; 61 µM (inactive) in the assay with DU-145; 54.6 µM (inactive) in the assay on SW-620. Further, the GI50 with BT-549 is 55.5 µM (inactive); with SK-OV-3, > 100 µM (inactive); in the assay on HOP-62, > 100 µM (inactive); in the assay with UACC-62 it was 20.2 µM (inactive); with MDA-MB-435, 46.3 µM (inactive); in the assay on OVCAR-3, 86.5 µM (inactive). In addition, the GI50 in the assay with MDA-N is 37 µM (inactive); with LOX IMVI, 36.6 µM (inactive); in the assay with M14 it was 18.3 µM (inactive); with 786-0, 39.3 µM (inactive); with NCI-H460, 36.8 µM (inactive); in the assay on NCI-H522, 38 µM (inactive). In addition, the GI50 in the assay with SN12C is 66.8 µM (inactive); in the assay on K562 it was 50.1 µM (inactive).
For `Cc1ccc(S(=O)(=O)CNC(=O)C(O)(O)C(F)(F)F)cc1`, the GI50 in the assay on MCF7, in the assay with HCT-116, in the assay with MOLT-4, with T47D, in the assay on DU-145 and in the assay on SW-620 was > 100 µM (inactive) each time. Moreover, the GI50 in the assay on BT-549, in the assay on SK-OV-3, with HOP-62, in the assay on UACC-62, in the assay on MDA-MB-435 and in the assay on OVCAR-3 was > 100 µM (inactive) throughout. For the same compound, the GI50 with MDA-N, in the assay on LOX IMVI, with M14, in the assay with 786-0, in the assay on NCI-H460 and in the assay with NCI-H522 was > 100 µM (inactive) throughout. Further, the GI50 with SN12C and in the assay with K562 was > 100 µM (inactive) each time.
For `NCCCCCCn1c(-c2ccc(Br)cc2)cs/c1=N\c1ccccc1`, the GI50 in the assay on MCF7 was 5.21 µM (inactive); with HCT-116 it was 4.09 µM (inactive); with MOLT-4 it was 3.83 µM (inactive); in the assay on T47D, 5.08 µM (inactive); with DU-145 it was 13.5 µM (inactive); in the assay with SW-620 it was 4.28 µM (inactive). In addition, the GI50 in the assay on BT-549 was 13.8 µM (inactive); in the assay with SK-OV-3, 17.2 µM (inactive); in the assay on HOP-62, 16.8 µM (inactive); in the assay on UACC-62, 17.4 µM (inactive); in the assay on MDA-MB-435 it was 10.8 µM (inactive); in the assay with OVCAR-3, 10.9 µM (inactive). Also, the GI50 in the assay on MDA-N was 6.28 µM (inactive); with LOX IMVI, 2.53 µM (inactive); in the assay on M14, 1.44 µM (inactive); in the assay on 786-0, 10.2 µM (inactive); with NCI-H460 it was 13.1 µM (inactive); in the assay on NCI-H522 it was 10.5 µM (inactive). Besides, the GI50 with SN12C is 13.7 µM (inactive); with K562, 2.01 µM (inactive).
`Cc1cc(N(CCC#N)CCC#N)ccc1/C=C(\NC(=O)/C=C/c1ccccc1)C(=O)NN`: the GI50 was 95.1 µM (inactive) in the assay on MCF7; 99.1 µM (inactive) in the assay on HCT-116; > 100 µM (inactive) in the assay with MOLT-4; 55 µM (inactive) in the assay on T47D; > 100 µM (inactive) with DU-145; > 100 µM (inactive) in the assay with SW-620. Also, the GI50 with BT-549 was 25.6 µM (inactive); in the assay on SK-OV-3, 31 µM (inactive); in the assay with HOP-62, 37.1 µM (inactive); in the assay with UACC-62, > 91 µM (inactive); with MDA-MB-435, > 100 µM (inactive); with OVCAR-3, > 100 µM (inactive). The GI50 with MDA-N was > 100 µM (inactive); in the assay on LOX IMVI, > 100 µM (inactive); in the assay on M14 it was > 100 µM (inactive); in the assay on 786-0, 30.6 µM (inactive); in the assay with NCI-H460, > 66.8 µM (inactive); in the assay with NCI-H522, > 56.1 µM (inactive). Further, the GI50 in the assay with SN12C and in the assay with K562 was > 100 µM (inactive) throughout.
